Results reported in ChEMBL document CHEMBL1151469, “Cytotoxic activity of N-chlorotaurine on Acanthamoeba spp” (Antimicrob Agents Chemother, 2008).
The source made the active and inactive calls. The rule behind the calls is not given here.

How the values were obtained:
[1] = tested on: Acanthamoeba polyphaga; assay: Amoebicidal activity against Trophozoites of Acanthamoeba polyphaga 5SU assessed as killing time at 20 mM in peptone yeast extract glucose medium at pH 7 by hemocytometer using trypan blue stain; assay type: functional
[2] = tested on: Acanthamoeba hatchetti; assay: Amoebicidal activity against Trophozoites of Acanthamoeba hatchetti 11DS assessed as log reduction in cell count at 10 mM in phosphate buffered saline at pH 5 after 24 hrs by hemocytometer using trypan blue staining in presence of 160 mM mM beta-alanine; assay type: functional, organism-based
[3] = tested on: Acanthamoeba polyphaga; assay: Amoebicidal activity against Trophozoites of Acanthamoeba polyphaga 5SU in phosphate buffered saline at pH 7 after 1 hr by hemocytometer using trypan blue stain; assay type: functional, organism-based
[4] = tested on: Acanthamoeba polyphaga; assay: Amoebicidal activity against Trophozoites of Acanthamoeba polyphaga 5SU assessed as increase in reduction in cell count at 20 mM in peptone yeast extract glucose medium at pH 7 after 6 hrs by hemocytometer using trypan blue stain; assay type: functional, organism-based
[5] = tested on: Acanthamoeba hatchetti; assay: Amoebicidal activity against Trophozoites of Acanthamoeba hatchetti 11DS assessed as killing time at 55 mM in phosphate buffered saline at pH 7 by hemocytometer using trypan blue stain; assay type: functional
[6] = tested on: Acanthamoeba hatchetti; assay: Amoebicidal activity against Trophozoites of Acanthamoeba hatchetti 11DS assessed as complete loss of viability at 55 mM in phosphate buffered saline after 24 hrs by hemocytometer using trypan blue stain in presence of 190 mM ammonium chloride; assay type: functional, organism-based
[7] = tested on: Acanthamoeba hatchetti; assay: Amoebicidal activity against Trophozoites of Acanthamoeba hatchetti 11DS in peptone yeast extract glucose medium at pH 7 after 6 hrs by hemocytometer using trypan blue stain; assay type: functional, organism-based
[8] = tested on: Acanthamoeba castellanii; assay: Amoebicidal activity against Trophozoites of Acanthamoeba castellanii 40AB assessed as log reduction in cell count at 10 mM in phosphate buffered saline at pH 7 after 6 hrs by hemocytometer using trypan blue stain; assay type: functional
[9] = tested on: Acanthamoeba polyphaga; assay: Amoebicidal activity against excysted trophozoites of Acanthamoeba polyphaga 5SU at 55 mM in peptone yeast extract glucose medium after 6 days by hemocytometer using trypan blue stain; assay type: functional
[10] = tested on: Acanthamoeba hatchetti; assay: Amoebicidal activity against Trophozoites of Acanthamoeba hatchetti 11DS in peptone yeast extract glucose medium at pH 7 after 6 hrs by hemocytometer using trypan blue stain in presence of 68 mM ammonium chloride; assay type: functional, organism-based
[11] = tested on: Acanthamoeba hatchetti; assay: Amoebicidal activity against Trophozoites of Acanthamoeba hatchetti 11DS assessed as increase in reduction in cell count at 20 mM in peptone yeast extract glucose medium at pH 7 after 6 hrs by hemocytometer using trypan blue stain in presence of 580 mM ammonium chloride; assay type: functional, organism-based
[12] = tested on: Acanthamoeba hatchetti; assay: Amoebicidal activity against excysted trophozoites of Acanthamoeba hatchetti 11DS at 55 mM in peptone yeast extract glucose medium after 24 hrs by hemocytometer using trypan blue stain; assay type: functional
[13] = tested on: Acanthamoeba polyphaga; assay: Amoebicidal activity against Trophozoites of Acanthamoeba polyphaga 5SU assessed as complete loss of viability at 55 mM in phosphate buffered saline incubated in xenic agar medium after 14 days by hemocytometer using trypan blue stain in presence of 190 mM ammonium chloride; assay type: functional, organism-based
[14] = tested on: Acanthamoeba hatchetti; assay: Amoebicidal activity against Trophozoites of Acanthamoeba hatchetti 11DS assessed as rounding of the cells at 0.16 M in peptone yeast extract glucose medium at pH 7 by hemocytometer using trypan blue stain; assay type: functional, organism-based
[15] = tested on: Acanthamoeba hatchetti; assay: Amoebicidal activity against Trophozoites of Acanthamoeba hatchetti 11DS assessed as killing time at 0.16 M in peptone yeast extract glucose medium at pH 7 by hemocytometer using trypan blue stain; assay type: functional
[16] = tested on: Acanthamoeba hatchetti; assay: Amoebicidal activity against excysted trophozoites of Acanthamoeba hatchetti 11DS at 55 mM in peptone yeast extract glucose medium after 4 days by hemocytometer using trypan blue stain; assay type: functional
[17] = tested on: Acanthamoeba polyphaga; assay: Amoebicidal activity against Trophozoites of Acanthamoeba polyphaga 5SU assessed as log reduction in cell count at 10 mM in phosphate buffered saline at pH 5 after 1 hr by hemocytometer using trypan blue staining; assay type: functional, organism-based
[18] = tested on: Acanthamoeba polyphaga; assay: Amoebicidal activity against Trophozoites of Acanthamoeba polyphaga 5SU in phosphate buffered saline at pH 7 after 6 hrs by hemocytometer using trypan blue stain; assay type: functional, organism-based
[19] = tested on: Acanthamoeba polyphaga; assay: Amoebicidal activity against Trophozoites of Acanthamoeba polyphaga 5SU in peptone yeast extract glucose medium at pH 7 after 24 hrs by hemocytometer using trypan blue stain; assay type: functional, organism-based
[20] = tested on: Acanthamoeba polyphaga; assay: Amoebicidal activity against Trophozoites of Acanthamoeba polyphaga 5SU assessed as reduction in killing time at 10 mM in phosphate buffered saline at pH 5 by hemocytometer using trypan blue stain in presence of 160 mM beta-alanine; assay type: functional, organism-based
[21] = tested on: Acanthamoeba hatchetti; assay: Amoebicidal activity against Trophozoites of Acanthamoeba hatchetti 11DS assessed as killing time at 20 mM in peptone yeast extract glucose medium at pH 7 by hemocytometer using trypan blue stain; assay type: functional
[22] = tested on: Acanthamoeba castellanii; assay: Amoebicidal activity against excysted trophozoites of Acanthamoeba castellanii 4CL at 55 mM in peptone yeast extract glucose medium after 6 days by hemocytometer using trypan blue stain; assay type: functional
[23] = tested on: Acanthamoeba polyphaga; assay: Amoebicidal activity against Trophozoites of Acanthamoeba polyphaga 5SU assessed as log reduction in cell count at 10 mM in phosphate buffered saline at pH 5 after 6 hrs by hemocytometer using trypan blue stain in presence of 34 mM ammonium chloride; assay type: functional, organism-based
[24] = tested on: Acanthamoeba castellanii; assay: Amoebicidal activity against Trophozoites of Acanthamoeba castellanii 4CL assessed as killing time at 20 mM in peptone yeast extract glucose medium at pH 7 by hemocytometer using trypan blue stain; assay type: functional
[25] = tested on: Acanthamoeba polyphaga; assay: Amoebicidal activity against Trophozoites of Acanthamoeba polyphaga 5SU in peptone yeast extract glucose medium at pH 7 after 6 hrs by hemocytometer using trypan blue stain; assay type: functional, organism-based
[26] = tested on: Acanthamoeba polyphaga; assay: Amoebicidal activity against Trophozoites of Acanthamoeba polyphaga 5SU assessed as log reduction in cell count at 10 mM in phosphate buffered saline at pH 5 after 1 hr by hemocytometer using trypan blue stain in presence of 34 mM ammonium chloride; assay type: functional, organism-based
[27] = tested on: Acanthamoeba castellanii; assay: Amoebicidal activity against excysted trophozoites of Acanthamoeba castellanii 4CL at 55 mM in peptone yeast extract glucose medium after 4 days by hemocytometer using trypan blue stain; assay type: functional
[28] = tested on: Acanthamoeba polyphaga; assay: Amoebicidal activity against excysted trophozoites of Acanthamoeba polyphaga 5SU at 55 mM in peptone yeast extract glucose medium after 24 hrs by hemocytometer using trypan blue stain; assay type: functional
[29] = tested on: Acanthamoeba polyphaga; assay: Amoebicidal activity against Trophozoites of Acanthamoeba polyphaga 5SU assessed as killing time at 55 mM in phosphate buffered saline at pH 7 by hemocytometer using trypan blue stain; assay type: functional
[30] = tested on: Acanthamoeba hatchetti; assay: Amoebicidal activity against Trophozoites of Acanthamoeba hatchetti 11DS in peptone yeast extract glucose medium at pH 7 after 1 hr by hemocytometer using trypan blue stain in presence of 68 mM ammonium chloride; assay type: functional, organism-based
[31] = tested on: Acanthamoeba castellanii; assay: Amoebicidal activity against Trophozoites of Acanthamoeba castellanii 40AB assessed as killing time at 20 mM in peptone yeast extract glucose medium at pH 7 by hemocytometer using trypan blue stain; assay type: functional
[32] = tested on: Acanthamoeba polyphaga; assay: Amoebicidal activity against Trophozoites of Acanthamoeba polyphaga 5SU in peptone yeast extract glucose medium at pH 7 after 24 hrs by hemocytometer using trypan blue stain in presence of 68 mM ammonium chloride; assay type: functional, organism-based
[33] = tested on: Acanthamoeba castellanii; assay: Amoebicidal activity against excysted trophozoites of Acanthamoeba castellanii 4CL at 55 mM in peptone yeast extract glucose medium after 11 days by hemocytometer using trypan blue stain; assay type: functional
[34] = tested on: Acanthamoeba polyphaga; assay: Amoebicidal activity against Trophozoites of Acanthamoeba polyphaga 5SU assessed as killing time at 10 mM in phosphate buffered saline at pH 7 by hemocytometer using trypan blue stain; assay type: functional
[35] = tested on: Acanthamoeba castellanii; assay: Amoebicidal activity against Trophozoites of Acanthamoeba castellanii 4CL assessed as log reduction in cell count at 10 mM in phosphate buffered saline at pH 7 after 6 hrs by hemocytometer using trypan blue stain; assay type: functional

Q: For O=S(=O)(O)CCNCl, which Activity [1] is on record?
A: 36 h

Q: What about the Activity [2] of the same compound?
A: Active

Q: What about the EC50 [3] of the same compound?
A: 29.3 mM

Q: What about the Activity [4] of the same compound?
A: Active

Q: And the Activity [5]?
A: 30 min

Q: And the Activity [6]?
A: Active

Q: And the EC50 [7]?
A: 9.15 mM

Q: And the Activity [8]?
A: 2

Q: And the Activity [9]?
A: 18000

Q: What about the EC50 [10] of the same compound?
A: 10.4 mM

Q: And the Activity [11]?
A: inactive

Q: And the Activity [12]?
A: 4600

Q: What about the Activity [13] of the same compound?
A: inactive

Q: And the Activity [14]?
A: Active

Q: And the Activity [15]?
A: 1 h

Q: And the Activity [16]?
A: 100000

Q: And the Activity [17]?
A: Active

Q: And the EC50 [18]?
A: 4 mM

Q: What about the EC90 [18] of the same compound?
A: 7.95 mM

Q: What about the EC50 [19] of the same compound?
A: 8.1 mM

Q: What about the Activity [20] of the same compound?
A: inactive

Q: And the Activity [21]?
A: 36 h

Q: What about the Activity [22] of the same compound?
A: 7200

Q: What about the Activity [23] of the same compound?
A: Active

Q: And the Activity [24]?
A: 36 h

Q: And the EC50 [25]?
A: 11.7 mM

Q: What about the Activity [26] of the same compound?
A: Active

Q: And the Activity [27]?
A: 2000

Q: What about the Activity [28] of the same compound?
A: 1000

Q: And the Activity [29]?
A: 1 h

Q: What about the EC50 [30] of the same compound?
A: 13.9 mM

Q: What about the Activity [31] of the same compound?
A: 36 h

Q: What about the EC50 [32] of the same compound?
A: 10.2 mM

Q: What about the Activity [33] of the same compound?
A: 100000

Q: And the Activity [34]?
A: 15 h

Q: What about the Activity [35] of the same compound?
A: 2
